# Measured values published in PMC4111400 (Journal of Medicinal Chemistry, 2014).
# Like-named read-outs stand apart in the source and are kept apart here.
# Experiments:
# [1] = test system: hippocampal kindled seizure; conditions: ip; cited from earlier work
# [2] = test system: Na+ channels in CAD cells; assay: frequency; assay type: cell-based, mouse; conditions: 500 μM (Figure 9 legend: concentrations greater than 500 μM)
# [3] = test system: Na+ channels in CAD cells; conditions: cited from earlier work
# [4] = test system: subcutaneous Metrazol (scMet) seizure; conditions: 10−13; cited from earlier work
# [5] = test system: Na+ channels in CAD cells; conditions: 100 μM; cited from earlier work
compound,measurement,setting,value
"COC[C@@H](NC(C)=O)C(=O)NCc1ccccc1 [(R)-1, (R)-N-Benzyl 2-acetamido-3-methoxypropionamide]","ED50, rat hippocampal seizure model",[1],14 mg/kg
same,frequency (use) inhibition of Na+ currents,[2],significant inhibition of use-dependence
same,effect on Na+ channel fast inactivation,[3],did not affect Na^+ channel fast inactivation
same,activity in the scMet model,[4],no activity
same,frequency (use) inhibition of Na+ currents,[5],not observed notable frequency (use) inhibition of Na^+ currents
